Laboratory results published in publication PMC9820377, “Molecular Characterization and Expression Patterns of Two Pheromone-Binding Proteins from the Diurnal Moth Phauda flammans (Walker) (Lepidoptera: Zygaenoidea: Phaudidae)” (International Journal of Molecular Sciences, 2022).

Experiments:
PflaPBP1 = PflaPBP1 (Phauda flammans, UniProt A0A6M6RBM3); experiment: Fluorescence competitive binding assay with 1-NPN probe, PflaPBP1; details: recombinant protein 2 µM, 1-NPN 2 µM, 50 mM Tris-HCl buffer; for Ki: calculated from IC50 and K1-NPN, pH 7.4; for IC50: pH 7.4, room temperature
Sequence of PflaPBP1 (A0A6M6RBM3 entry or part of it): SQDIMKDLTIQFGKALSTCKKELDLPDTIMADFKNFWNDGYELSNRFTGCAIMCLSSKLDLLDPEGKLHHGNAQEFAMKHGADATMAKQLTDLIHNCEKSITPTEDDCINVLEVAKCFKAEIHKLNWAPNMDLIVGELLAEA
Description: (§1) An RF-5301PC fluorescence spectrophotometer (Shimadzu, Kyoto, Japan) was used in this experiment for fluorescence competitive binding analysis with a 1-cm quartz colorimetric cup at room temperature. N-Phenyl-1-naphthylamine (1-NPN) was used as the probe and applied for the suitability test. The 1-NPN was excited at 337 nm, in which the emission spectra were recorded between 350 and 660 nm. The purified PflaPBP1 and PflaPBP2 were diluted to a final concentration of 2 µM of the protein solution in Tris-HCl buffer and titrated with aliquots of 1 mM 1-NPN dissolved in methanol, which were 0, 2, 4, 8, 12, 16, 20 µM. The maximum fluorescence value (manipulate peak pick) of each excitation was recorded. The binding data were obtained from three independent measurements. The dissociation constants of PflaPBP1/PflaPBP2 for 1-NPN were calculated from Scatchard plots of the binding data by using Prism 5 software (GraphPad, La Jolla, CA, USA) with nonlinear regression for the one site-specific binding method.
(§2) The two sex pheromones Z-9-hexadecenal (Z9H, 96.3% chemical purity) and (Z, Z, Z)-9,12,15-octadecatrienal (Z9O, 93% chemical purity) were obtained from Shanghai T & W Pharmaceutical Co., Ltd. (Shanghai, China) and Pherobank BV (Wijk bij Duurstede, The Netherlands). The competitive binding of these two sex pheromone components was measured using 1-NPN (2 µM) as the fluorescent probe with a stoichiometry of 1:1 (protein: ligand). PflaPBP1 or PflaPBP2 was titrated to a final concentration of 2 μmol/L with 50 mM Tris-HCl buffer. The sex pheromone dissolved in methanol was gradually added to the mixed solution of protein and 1-NPN with the final concentration of each ligand added to the sample ranging from 0 μM to 20 μM. All sets of fluorescence spectrophotometers were the same as above. The binding data were obtained from three independent measurements. […] The following formula was adopted to calculate the binding affinities (Ki): Ki=[IC50]/1+[1−NPN/K1−NPN] ) where [1-NPN] is the free concentration of 1-NPN, [IC50] is the ligand concentration replacing 50% of the fluorescence reporter, and K1-NPN is the dissociation constant of the PflaPBP/1-NPN complex. The data were fitted with nonlinear regression model using Prism software (version 5.0).

PflaPBP2 = PflaPBP2 (Phauda flammans, UniProt A0A6M6R985); experiment: Fluorescence competitive binding assay with 1-NPN probe, PflaPBP2; details: recombinant protein 2 µM, 1-NPN 2 µM, 50 mM Tris-HCl buffer; for Ki: calculated from IC50 and K1-NPN, pH 7.4; for IC50: pH 7.4, room temperature
Sequence of PflaPBP2 (A0A6M6R985 entry or part of it): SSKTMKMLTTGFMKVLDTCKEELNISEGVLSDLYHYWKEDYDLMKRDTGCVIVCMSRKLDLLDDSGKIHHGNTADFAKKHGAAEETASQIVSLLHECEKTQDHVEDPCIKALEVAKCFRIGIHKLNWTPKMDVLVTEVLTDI
Description: as §1
as §2, with “The sex pheromone dissolved in methanol was gradually added to the mixed solution of protein and 1-NPN with the final concentration of each ligand added to the sample ranging from 0 μM to 20 μM.” left out

SMILES	Ki (PflaPBP1) [µM]	IC50 (PflaPBP1) [µM]	Ki (PflaPBP2) [µM]	IC50 (PflaPBP2) [µM]
CC/C=C\C/C=C\C/C=C\CCCCCCCC=O [(Z, Z, Z)-9, 12, 15-octadecatrienal]	38.5	52.7	24.8	34
CCCCCC/C=C\CCCCCCCC=O [Z-9-hexadecenal]	21.3	29.1	109	149
